Results: patent US5478818A, “Estradiol derivative-alkylating agent conjugate with reduced hormonal activity, process for preparing the same, compounds useful for the preparation thereof, and growth inhibiting composition containing the conjugate or estradiol derivative” (priority 1993, dated 1995)
Read-outs that look alike come from different tables or passages of the source.

How the values were obtained:
DU-145 cells = experiment: Growth inhibiting effect in bFGF-added system using DU-145 cells (tritium-labeled thymidine uptake); assay type: cell-based
Protocol: Uptake of tritium-labeled thymidine was examined in a serum free culture system using bFGF-dependent DU-145 cells. Strong inhibitory effects of the conjugate and the estradiol derivative were shown.
The DU-145 cells were cultured on a 96-well microplate (5,000 cells/well) for 24 hours with a culture medium (200 μl/well; Ham's F-12/MEM-E (98%) and dextran-treated fetal calf serum (2%)). Then the culture medium was replaced with fresh medium containing the test compound (Ham's F-12/MEM-E, bovine serum albumin (0.1%), bovine pituitary-derived bFGF (1 ng/ml) and the test compound of various concentrations). Culture with this medium was continued for 4 days. Thymidine (1 μci/ml, tritium-labeled) was added, and 5 hours layer, the culture medium was removed. The cells were washed with PBS and then washed twice with ice-cold trichloroacetic acid (10%). Then the cells were dissolved in 0.5N sodium hydroxide and neutralized with 0.5N hydrochloric acid. The radioactivity of the neutralized solution was measured by a liquid scintillation counter to determine the growth inhibiting effect (IC50).

SC-115 cells = experiment: Growth inhibiting effect in testosterone-added system using SC-115 cells (tritium-labeled thymidine uptake); assay type: cell-based
Protocol: Uptake of tritium-labeled thymidine was examined in a serum free culture system using testosterone-dependent SC-115 cells. Strong inhibitory effects of the conjugate and the estradiol derivatives were shown.
The SC-115 cells were cultured on a 96-well microplate (5,000 cells/well) for 24 hours with a culture medium (200 μl/well; Ham's F-12/MEM-E (98% ), dextran-treated fetal calf serum (2%) and testosterone (1×10^-8 M)). The culture medium was replaced with fresh medium containing the test compound (Ham's F-12/MEM-E, bovine serum albumin (0.1%), testosterone (1×10^-8 M) and test compound of various concentrations). The culture medium was replaced every two days, and culture was continued for 7 days. Thymidine (1 μci/ml, tritium-labeled)was added, and 5 hours later, the culture medium was removed. The cells were washed with PBS and then washed twice with ice-cold trichloroacetic acid (10%). Then the cells were dissolved in 0.5N sodium hydroxide and neutralized with 0.5N hydrochloric acid. The radioactivity of the neutralized solution was measured by a liquid scintillation counter to determine the growth inhibiting effect (IC50).

uterus = experiment: Estrogen action (uterine weight tests); assay type: in vivo; conditions: once hypodermically, 3-week-old Wistar female rats, 24 hours; higher = weaker estrogen action
Protocol: The estrogen action of the conjugate and the estradiol derivative were each examined according to the uterine weight tests. The estrogen action was found diminished.
The test compounds and estradiol dissolved in sesame oil (containing 3% benzyl alcohol) were each administered once hypodermically to 3-week-old Wistar female rats. 24 hours later, the uterus of each test rat was removed and its weight (ratio to the body weight) was measured. From the relation between the uterus weight/body weight ratio and the dosage, the compound dosage that gives a uterus weight/body weight ratio twice that in the control group was determined. The dosages of the test compounds are shown as a ratio to the dosage of estradiol. 3-Benzoyloxy-1,3,5(10)-estratriene-17β-[4-[p-[bis (2-chloroethyl)amino]phenyl]-butyryloxy]acetate was used as a comparative compound.

[1] = DU-145 cells, bFGF 1 ng/ml, 4 days, read-out: IC50
[2] = SC-115 cells, testosterone 1×10^-8 M, 7 days, read-out: IC50
[3] = 168 h, SC-115 cells, testosterone 1×10^-8 M, 7 days, read-out: IC50

| Compound | IC50 (DU-145 cells; [1]) [nM] | IC50 (SC-115 cells; [2]) [nM] | Dosage that gives a uterus wt/body wt ratio twice that in control group (ratio to estradiol dosage) (uterus) | IC50 (DU-145 cells; Homo sapiens, DU-145, 96 h, read-out: IC50 (ND*: no inhibiting action observed)) [nM] | IC50 (SC-115 cells; 168 h) [nM] | IC50 (DU-145 cells; Homo sapiens, 96 h, DU-145 cells, bFGF 1 ng/ml, 4 days, read-out: IC50) [nM] | IC50 (SC-115 cells; [3]) [nM] |
| --- | --- | --- | --- | --- | --- | --- | --- |
| 1-[3-benzoyloxy-1,3,5(10)-estratriene-1-methyl-17β-oxy]-2-[4-[p-[bis(2-hydroxyethyl)amino]phenyl]-butoxy]ethane [Compound I-3] | 9200 | 200 | > 7000 ratio to estradiol dosage |  |  |  |  |
| C[C@]12CC[C@@H]3c4ccc(OC(=O)c5ccccc5)cc4CC[C@H]3[C@@H]1CC[C@@H]2OC(=O)COC(=O)CCCc1ccc(N(CCCl)CCCl)cc1 [Comparative compound, 3-Benzoyloxy-1,3,5(10)-estratriene-17β-[4-[p-[bis (2-chloroethyl)amino]phenyl]-butyryloxy]acetate, reference compound] |  |  | 200 ratio to estradiol dosage | > 10000 | 2600 |  |  |
| C[C@]12CC[C@@H]3c4ccc(OCc5ccccc5)cc4CC[C@H]3[C@@H]1CC[C@@H]2OCCOCCCCc1ccc(N(CCCl)CCCl)cc1 [Compound I-1, 1-[3-benzyloxy-1,3,5(10) -estratriene-17β-oxy]-2-[4-[p-[bis (2-chloroethyl)amino]phenyl]butoxy]ethane] | 4600 | 1200 | > 7000 ratio to estradiol dosage |  |  |  |  |
| C[C@]12CC[C@@H]3c4ccc(OC(=O)c5ccccc5)cc4CC[C@H]3[C@@H]1CC[C@@H]2OCCOCCCCc1ccc(N(CCCl)CCCl)cc1 [Compound I-2, 1-[3-benzoyloxy-1,3,5(10)-estratriene-17β-oxy]-2-[4-[p-[bis (2-chloroethyl)amino]phenyl]butoxy]ethane] | 7800 | 1300 | > 7000 ratio to estradiol dosage |  |  |  |  |
| C[C@]12CC[C@@H]3c4ccc(OC(=O)c5ccccc5)cc4CC[C@H]3[C@@H]1CC[C@@H]2OCCOCCCCc1ccc(N(CCO)CCO)cc1 [Compound I-4] |  | 800 | 1400 ratio to estradiol dosage |  |  |  |  |
| C[C@]12CC[C@@H]3c4ccc(OCc5ccccc5)cc4CC[C@H]3[C@@H]1CC[C@@H]2OCCOC(=O)CCCc1ccc(N(CCCl)CCCl)cc1 [Compound I-5, 1-[3-benzyloxy-1,3,5(10)-estratriene-17β-oxy]-2-[4-[p-[bis(2-chloroethyl)amino]phenyl]-butyryloxy]ethane] |  | 500 | > 7000 ratio to estradiol dosage |  |  |  |  |
| C[C@]12CC[C@@H]3c4ccc(OC(=O)c5ccccc5)cc4CC[C@H]3[C@@H]1CC[C@@H]2OCCOC(=O)CCCc1ccc(N(CCCl)CCCl)cc1 [Compound I-6, 1-[3-benzoyloxy-1,3,5(10)-estratriene-17β-oxy]-2-[4-[p-[bis (2-chloroethyl)amino]phenyl]-butyryloxy]ethane] |  | 1500 | > 7000 ratio to estradiol dosage |  |  |  |  |
| C[C@]12CC[C@@H]3c4ccc(OCc5ccccc5)cc4CC[C@H]3[C@@H]1CC[C@@H]2OCCO [II-1, 2-[3-benzyloxy-1,3,5 (10) -estratriene-17β-oxy]ethanol] |  |  | 200 ratio to estradiol dosage |  |  | 2900 | 200 |
| Cc1cc(OCc2ccccc2)cc2c1[C@H]1CC[C@]3(C)[C@@H](OCCO)CC[C@H]3[C@@H]1CC2 [II-2, 2-[3-benzyloxy-1,3,5(10) -estratriene-1-methyl-17β-oxy]ethanol] |  |  | > 7000 ratio to estradiol dosage |  |  |  | 700 |
| Cc1cc(OC(=O)c2ccccc2)cc2c1[C@H]1CC[C@]3(C)[C@@H](OCCO)CC[C@H]3[C@@H]1CC2 [II-3, 2-[3-benzoyloxy-1,3,5(10) -estratriene-1-methyl-17β-oxy]ethanol] |  |  | > 7000 ratio to estradiol dosage |  |  |  | 1500 |
